Experimental data: patent publication US20250144066A1, “Prevention and Treatment of Parasitic Infections” (priority 2017, published 2025)
Converted amounts (≈) assume the structure as drawn. Where two headings read alike, the source gives them in different places.

How the values were obtained:
[1] = system: Zika Virus; experiment: Zika virus cytopathic effect (CPE) inhibition, Vero 76, primary screen (Zika-089); assay type: cell-based; conditions: for EC50: Zika virus, MR766, Vero 76, primary
[2] = system: Zika Virus; experiment: Zika virus CPE inhibition (Neutral Red), Vero 76, secondary (Zika-094); assay type: cell-based; conditions: Neutral Red (Cytopathic effect), MR766
[3] = system: Zika Virus; experiment: Zika virus yield reduction (VYR), Vero 76, secondary (Zika-094); assay type: cell-based; conditions: Visual (Virus yield reduction), MR766
[4] = system: Zika Virus; experiment: Zika virus CPE inhibition (Neutral Red), Huh7, secondary (Zika-094); assay type: cell-based
[5] = system: Zika Virus; experiment: Zika virus yield reduction (VYR), Huh7, secondary (Zika-094); assay type: cell-based; conditions: Huh-7, Visual (Virus yield reduction), MR766
[6] = system: Zika Virus; experiment: Zika prevention, CPE inhibition (Neutral Red), Huh7, 4 h pre-incubation (Zika-138); assay type: cell-based; conditions: Zika virus, Huh-7, Neutral Red (Cytopathic effect), pre-incubated 4 hours prior to infection, read-out: EC50
[7] = system: Zika Virus; experiment: Zika prevention, virus yield reduction (VYR), Huh7, 4 h pre-incubation (Zika-138); assay type: cell-based; conditions: for Virus Titer: 4 hr pre-incubation, Huh7 cells
Procedure: (§1) An experiment was carried out as specified in Example 8. In a Zika Prevention Trial, MPA was pre-incubated with human cells 4 hours or 24 hours before Zika virus infection.

[8] = system: Zika Virus; experiment: Zika prevention, CPE inhibition (Neutral Red), Huh7, 24 h pre-incubation (Zika-138); assay type: cell-based; conditions: Zika virus, Huh-7, Neutral Red (Cytopathic effect), pre-incubated 24 hours prior to infection, read-out: EC50
[9] = system: Zika Virus; experiment: Zika prevention, virus yield reduction (VYR), Huh7, 24 h pre-incubation (Zika-138); assay type: cell-based; conditions: for Virus Titer: 24 hr pre-incubation, Huh7 cells
Procedure: as §1

[10] = system: Zika Virus; experiment: Zika prevention, virus yield reduction (VYR), Vero 76, 4 h pre-incubation (Zika-138); assay type: cell-based; conditions: Zika virus, Visual (Virus yield reduction), pre-incubated 4 hours prior to infection, read-out: EC90
[11] = system: Zika Virus; experiment: Zika prevention, CPE inhibition (Neutral Red), Vero 76, 24 h pre-incubation (Zika-138); assay type: cell-based; conditions: Zika virus, Neutral Red (Cytopathic effect), pre-incubated 24 hours prior to infection, read-out: EC50
[12] = system: Zika Virus; experiment: Zika prevention, virus yield reduction (VYR), Vero 76, 24 h pre-incubation (Zika-138); assay type: cell-based; conditions: Zika virus, Visual (Virus yield reduction), pre-incubated 24 hours prior to infection, read-out: EC90
[13] = system: human norovirus (NV, GT1); experiment: Human norovirus replicon, RNA Hybridization, HG23, primary (16-21); assay type: cell-based
Text: (§2) Secondary testing was done with human norovirus.

[14] = RNA Hybridization toxicity in HG23 cells (16-21); assay type: cell-based; conditions: human, HG23 cells
Text: as §2

[15] = system: mouse norovirus (MNV-1); experiment: Mouse norovirus CPE inhibition (NR), RAW264.7 (17-09); assay type: cell-based; conditions: Norovirus
[16] = system: human norovirus (NV, GT1); experiment: Human norovirus replicon, qPCR, HG23, secondary (17-14); assay type: cell-based; conditions: Norovirus
Text: as §2

[17] = system: Influenza A virus H1N1 California/07/2009; experiment: microbe, parasite or virus in culture; assay type: cell-based
[18] = system: Respiratory syncytial virus A2; experiment: microbe, parasite or virus in culture; assay type: cell-based
[19] = system: Adenovirus5 Adenoid75; experiment: Adenovirus 5 CPE inhibition, A549 (ADV-0172); assay type: cell-based; conditions: for EC50: Human mastadenovirus C, A549, read-out: EC50
[20] = system: Lassa fever virus Josiah; experiment: organism not typed; assay type: cell-based
[21] = system: Powassan virus LB; experiment: microbe, parasite or virus in culture; assay type: cell-based; conditions: for EC50: Powassan virus, BHK
[22] = system: Rift Valley fever virus MP-12; experiment: microbe, parasite or virus in culture; assay type: cell-based; conditions: for EC50: Rift Valley fever virus, Vero76
[23] = system: Vero76; conditions: African green monkey
[24] = in vitro; conditions: dog
[25] = in vitro; conditions: African green monkey
[26] = NR toxicity in RAW264.7 cells (17-09); conditions: mouse
[27] = Cell Titer-Glo toxicity in C-33A cells (HPV16-15); conditions: human
[28] = Toxicity in Vero 76 cells, primary screen (Zika-089); conditions: monkey
[29] = Neutral Red toxicity in Huh7 cells, secondary (Zika-094); conditions: human
[30] = Neutral Red toxicity in Vero 76 cells, secondary (Zika-094); conditions: monkey
[31] = Neutral Red toxicity in Huh7 cells, 4 h pre-incubation (Zika-138); conditions: human
[32] = Neutral Red toxicity in Huh7 cells, 24 h pre-incubation (Zika-138); conditions: human
[33] = Neutral Red toxicity in Vero 76 cells, 24 h pre-incubation (Zika-138); conditions: monkey
[34] = Vero 76, Neutral Red (Cytopathic effect)
[35] = Vero 76, Visual (Cytopathic effect)

Structure (SMILES): COc1c(C)c2c(c(O)c1C/C=C(\C)CCC(=O)O)C(=O)OC2 [EP1601, 6-(4-hydroxy-6-methoxy-7-methyl-3-oxo-1,3-dihydroisobenzofuran-5-yl)-4-methyl-hex-4-enoic acid]
- EC50 [1, 34]: 0.15 µg/mL (≈ 0.468 µM)
- EC50 [1, 35]: < 0.1 µg/mL
- activity against Zika Virus ([1]; three in vitro tests (Zika-A, Zika-B, Zika-C)): active
- EC50 [2]: 0.14 µg/mL (≈ 0.437 µM)
- EC90 [3]: 0.3 µg/mL (≈ 0.937 µM)
- EC50 ([4]; Huh-7, Neutral Red (Cytopathic effect), MR766, Huh7, secondary): 0.14 µg/mL (≈ 0.437 µM)
- EC50 ([4]; Huh-7, Zika virus, 'one of our tests' (test not specified), read-out: EC50): 0.049 µg/mL (≈ 0.153 µM)
- EC90 [5]: 0.088 µg/mL (≈ 0.275 µM)
- EC50 [6]: 0.17 µg/mL (≈ 0.531 µM)
- Virus Titer ([7]; MPA 0.1 μg/ml): 4.5 Log10 CCID50/0.1 ml
- Virus Titer ([7]; MPA 1 μg/ml): 4.5 Log10 CCID50/0.1 ml
- Virus Titer ([7]; MPA 10 μg/ml): 4.5 Log10 CCID50/0.1 ml
- Virus Titer ([7]; MPA 32 μg/ml): 4.5 Log10 CCID50/0.1 ml
- Virus Titer ([7]; MPA 100 μg/ml): 0.67 Log10 CCID50/0.1 ml
- EC90 ([7]; Zika virus, Huh-7, Visual (Virus yield reduction), Huh7, pre-incubated 4 hours prior to infection, read-out: EC90): 42.7 µg/mL (≈ 133 µM)
- mitigation of infection by Zika virus ([7]; given 4 hours before the infection): strongly mitigated the infection
- EC50 [8]: 0.55 µg/mL (≈ 1.72 µM)
- virus in VYR assay ([9]; Huh7 cells pre-incubated with drug for 24 hrs): reduced virus to zero
- Virus Titer ([9]; MPA 0.1 μg/ml): 4.5 Log10 CCID50/0.1 ml
- Virus Titer ([9]; MPA 1 μg/ml): 3.5 Log10 CCID50/0.1 ml
- Virus Titer ([9]; MPA 10 μg/ml): <.67 Log10 CCID50/0.1 ml
- Virus Titer ([9]; MPA 32 μg/ml): <.67 Log10 CCID50/0.1 ml
- Virus Titer ([9]; MPA 100 μg/ml): <.67 Log10 CCID50/0.1 ml
- EC90 ([9]; Zika virus, Huh-7, Visual (Virus yield reduction), Huh7, pre-incubated 24 hours prior to infection, read-out: EC90): 0.78 µg/mL (≈ 2.43 µM)
- prevention of infection by Zika virus ([9]; given 24 hours before infection): completely prevent infection
- EC90 [10]: 17.8 µg/mL (≈ 55.6 µM)
- EC50 [11]: 8 µg/mL (≈ 25 µM)
- EC90 [12]: 10 µg/mL (≈ 31.2 µM)
- EC50 ([13]; Norovirus, GT1, HG23): 151 nM
- EC90 ([13]; Norovirus, GT1, HG23): 1300 nM
- activity against Norovirus ([13]; three in vitro tests (human and mouse norovirus)): active
- CC50 [14]: > 100000 nM
- EC50 [15]: 123 nM
- EC90 [15]: 384 nM
- EC50 [16]: 219 nM
- EC90 [16]: 1100 nM
- activity against pandemic Influenza A H1N1 (California/07/2009) [17]: highly active
- EC50 ([17]; Influenza A virus, H1N1, MDCK): < 100 nM
- activity against Respiratory Syncytial Virus [18]: highly active
- EC50 ([18]; human respiratory syncytial virus, MA104): < 0.1 µg/mL
- activity against Adenovirus 5 [19]: active
- EC50 ([19]; A549, Neutral Red (Cytopathic effect)): 0.31 µg/mL (≈ 0.968 µM)
- EC50 ([19]; A549, Visual (Cytopathic effect)): 0.32 µg/mL (≈ 0.999 µM)
- activity against Lassa Fever [20]: active
- EC50 ([20]; Vero): 0.2 µg/mL (≈ 0.624 µM)
- activity against Powassan [21]: active
- EC50 ([21]; Neutral Red (Cytopathic effect)): 0.36 µg/mL (≈ 1.12 µM)
- EC50 ([21]; Visual (Cytopathic effect)): 0.32 µg/mL (≈ 0.999 µM)
- activity against Rift Valley [22]: active
- EC50 [22, 34]: 4 µg/mL (≈ 12.5 µM)
- EC50 [22, 35]: 3.1 µg/mL (≈ 9.68 µM)
- CC50 [23]: 17 µg/mL (≈ 53.1 µM)
- CC50 [24]: > 100000 nM
- CC50 [25]: 26 µg/mL (≈ 81.2 µM)
- CC50 [26]: 32000 nM
- CC50 [27]: > 150000 nM
- CC50 ([28]; CC50, Neutral Red (Toxicity)): 14 µg/mL (≈ 43.7 µM)
- CC50 ([28]; CC50, Visual (Toxicity)): > 100 µg/mL
- CC50 [29]: 1.6 µg/mL (≈ 4.99 µM)
- CC50 [30]: 2.3 µg/mL (≈ 7.18 µM)
- CC50 [31]: > 100 µg/mL
- CC50 [32]: 1.4 µg/mL (≈ 4.37 µM)
- CC50 [33]: 37 µg/mL (≈ 116 µM)
